For one data set, the system named is KB tumors. Put plainly: KB tumor assay in nu/nu mice. To be noted: for CR (%) / Cures (%) / PR (%) / Toxicity Avg. Weight Loss / Toxicity Deaths (%): TIW, 2 weeks. The protocol: Inhibition of Tumor Growth in Mice. Four to seven week-old mice (Balb/c or nu/nu strains) were purchased from Harlan Sprague Dawley, Inc. (Indianapolis, Ind.). Normal rodent chow contains a high concentration of folic acid (6 mg/kg chow); accordingly, mice used were maintained on the folate-free diet (Harlan diet #TD00434) for 1 week before tumor implantation to achieve serum folate concentrations close to the range of normal human serum. For tumor cell inoculation, 1×10^6 M109 cells (Balb/c strain) or 1×10^6 KB cells (nu/nu strain) in 100 μL were injected in the subcutis of the dorsal medial area. Tumors were measured in two perpendicular directions every 2-3 days using a caliper, and their volumes were calculated as 0.5×L×W^2, where L=measurement of longest axis in mm and W=measurement of axis perpendicular to L in mm. […] Dosing solutions were prepared fresh each day in PBS and administered through the lateral tail vein of the mice.
General KB Tumor Assay. The anti-tumor activity of the compounds described herein, when administered intravenously (i.v.) to tumor-bearing animals, was evaluated in nu/nu mice bearing subcutaneous KB tumors. Approximately 8 days post tumor inoculation in the subcutis of the right axilla with 1×10^6 KB cells (average tumor volume at to=50-100 mm^3), in mice (5/group) were injected i.v. three times a week (TIW), for 3 weeks with […] of the drug delivery conjugate or with an equivalent dose volume of PBS (control), unless otherwise indicated. Tumor growth was measured using calipers at 2-day or 3-day intervals in each treatment group. Tumor volumes were calculated using the equation V=a×b^2/2, where “a” is the length of the tumor and “b” is the width expressed in millimeters.
Toxicity as Measured by Weight Loss. The percentage weight change of the mice was determined in mice (5 mice/group) on selected days post-tumor inoculation (PTI), and graphed.
In vivo activity against tumors.

The target of another data set is T1, folate receptors (FRs) (Homo sapiens, UniProt P15328).
T1 construct: FR-positive KB cells were heavily seeded into 24-well cell culture plates; endogenous in cells; host or cells: KB cells (human cervical carcinoma)
T1 sequence (P15328 25-234): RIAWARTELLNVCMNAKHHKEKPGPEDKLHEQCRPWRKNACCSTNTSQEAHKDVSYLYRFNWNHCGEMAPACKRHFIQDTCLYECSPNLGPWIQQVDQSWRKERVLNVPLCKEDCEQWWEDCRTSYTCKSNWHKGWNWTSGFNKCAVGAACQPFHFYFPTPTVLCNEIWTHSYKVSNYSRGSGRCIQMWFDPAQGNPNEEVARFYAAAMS
Put plainly: Relative affinity assay (3H-folic acid displacement on KB cells). The conditions noted are these: compared to folic acid (relative affinity=1), 10% serum/FDRPMI. In kind it is binding. The protocol: Relative Affinity Assay. The affinity for folate receptors (FRs) relative to folate was determined according to a previously described method (Westerhof, G. R., J. H. Schornagel, et al. (1995) Mol. Pharm. 48: 459-471) with slight modification. Briefly, FR-positive KB cells were heavily seeded into 24-well cell culture plates and allowed to adhere to the plastic for 18 h. Spent incubation media was replaced in designated wells with folate-free RPMI (FFRPMI) supplemented with 100 nM ^3H-folic acid in the absence and presence of increasing concentrations of test article or folic acid. Cells were incubated for 60 min at 37° C. and then rinsed 3 times with PBS, pH 7.4. Five hundred microliters of 1% SDS in PBS, pH 7.4, were added per well. Cell lysates were then collected and added to individual vials containing 5 mL of scintillation cocktail, and then counted for radioactivity. Negative control tubes contained only the ^3H-folic acid in FFRPMI (no competitor). Positive control tubes contained a final concentration of 1 mM folic acid, and CPMs measured in these samples (representing non-specific binding of label) were subtracted from all samples.

Data set [1] relates to folate receptor-positive KB cells. To be noted: for In vitro specificity (fold): difference in IC50 between competed and non-competed group. The protocol: Inhibition of Cellular DNA Synthesis. The compounds described herein were evaluated using an in vitro cytotoxicity assay that predicts the ability of the drug to inhibit the growth of folate receptor-positive KB cells. The compounds were comprised of folate linked to a respective chemotherapeutic drug, as prepared according to the protocols described herein. The KB cells were exposed for up to 7 h at 37° C. to the indicated concentrations of folate-drug conjugate in the absence or presence of at least a 100-fold excess of folic acid. The cells were then rinsed once with fresh culture medium and incubated in fresh culture medium for 72 hours at 37° C. Cell viability was assessed using a ^3H-thymidine incorporation assay.
In vitro test against the various cancer cell lines. Cells are heavily seeded in 24-well Falcon plates and allowed to form nearly confluent monolayers overnight. Thirty minutes prior to the addition of the test compound, spent medium is aspirated from all wells and replaced with fresh folate-deficient RPMI medium (FFRPMI). A subset of wells are designated to receive media containing 100 μM folic acid. The cells in the designated wells are used to determine the targeting specificity. […] Following one rinse with 1 mL of fresh FFRPMI containing 10% heat-inactivated fetal calf serum, each well receives 1 mL of medium containing increasing concentrations of test compound (4 wells per sample) in the presence or absence of 100 μM free folic acid as indicated. Treated cells are pulsed for 2 h at 37° C., rinsed 4 times with 0.5 mL of media, and then chased in 1 mL of fresh medium up to 70 h. Spent medium is aspirated from all wells and replaced with fresh medium containing 5 μCi/mL ^3H-thymidine. Following a further 2 h 37° C. incubation, cells are washed 3 times with 0.5 mL of PBS and then treated with 0.5 mL of ice-cold 5% trichloroacetic acid per well. After 15 min, the trichloroacetic acid is aspirated and the cell material solubilized by the addition of 0.5 mL of 0.25 N sodium hydroxide for 15 min. A 450 μL aliquot of each solubilized sample is transferred to a scintillation vial containing 3 mL of Ecolume scintillation cocktail and then counted in a liquid scintillation counter. Final tabulated results are expressed as the percentage of ^3H-thymidine incorporation relative to untreated controls.
Folate receptor expressing cells. […] EC1456 was evaluated from 0.1-100 nM.

The subject of the next data set is cells in culture. Put plainly: Cytotoxicity to cells in culture. To be noted: read-out: typical IC50, cells in culture. In kind it is cell-based.
The next data set concerns KB-CR tumors. The data set can be described thus: Cisplatin-resistant KB-CR tumor model. In kind it is in vivo. To be noted: 3 mg/kg, twice per week (T/Th), 2 weeks.
The nature of data set [2]: Maximum tolerated dose (MTD). In kind it is in vivo, female Sprague-Dawley rats. To be noted: rat, in vivo, iv, BIW, 2 wks. The text has this: Maximum tolerated dose (MTD). […] For Example, EC1456 has a MTD of at least 0.51 μmol/kg and EC0531 has a MTD of 0.33 μmol/kg, […] when administered by i.v., BIW, 2 wks in female Sprague-Dawley rats. Histopathologic changes were not observed with doses of EC1456 at or below the MTD.

Setting [3] is: read-out: 50% competition, competed group (excess folic acid).
The mark [4] stands for this setting: 1.0 μmol/kg (2 doses), only 2 doses due to toxicity.

We go through eight compounds from US20140107316A1, “DRUG DELIVERY CONJUGATES CONTAINING UNNATURAL AMINO ACIDS AND METHODS FOR USING” (priority 2012, published 2014).

“Also recorded” adds a separate entry of the source. Like-named read-outs stand apart in the source and are kept apart here.

Regarding `CCCC(=O)OCN(C(=O)[C@@H](NC(=O)[C@H]1CCCCN1C)C(C)CC)[C@H](C[C@@H](OC(C)=O)c1nc(C(=O)N[C@@H](Cc2ccc(O)cc2)C[C@H](C)C(=O)NNC(=O)OCCSSC[C@@H](NC(=O)[C@H](CC(=O)O)NC(=O)[C@H](CC(=O)O)NC(=O)[C@H](CCCNC(=N)N)NC(=O)[C@H](CC(=O)O)NC(=O)CC[C@H](NC(=O)c2ccc(NCc3cnc4nc(N)[nH]c(=O)c4n3)cc2)C(=O)O)C(=O)O)cs1)C(C)C` (some centres unmarked) [EC1548], the In vivo activity result with KB tumors was “Complete”. Besides, the “Relative Affinity” value on folate receptors (FRs) was 0.23. In data set [1], the “In vitro specificity (fold)” value is 78 fold. Also, the IC50 in data set [1] (setting [3]) was found to be 350 nM; in data set [1] (read-out: In vitro IC50), 4.4 nM.

As to `CCCC(=O)OCN(C(=O)[C@@H](NC(=O)[C@H]1CCCCN1C)C(C)CC)[C@H](C[C@@H](OC(C)=O)c1nc(C(=O)N[C@@H](Cc2ccc(O)cc2)C[C@H](C)C(=O)NN)cs1)C(C)C` (some centres unmarked) [TubBH, tubulysin B hydrazide], in the data set on KB tumors (0.5 μmol/kg), the “CR (%)” value came to 0%, the “Cures (%)” value is 0%, the “PR (%)” value was found to be 0% and the “Toxicity Avg. Weight Loss” value is less than 5.5%. For the same compound, in the data set with KB tumors (0.5 μmol/kg), the “Toxicity Deaths (%)” value is 0%. In addition, in the data set on KB tumors (0.75 μmol/kg), the “CR (%)” value is on record as 0%, the “Cures (%)” value came out at 0%, the “PR (%)” value is recorded as 0% and the “Toxicity Avg. Weight Loss” value is recorded as greater than 10%. Further, the “Toxicity Deaths (%)” value in the data set on KB tumors (0.75 μmol/kg) is recorded as 20%. In the data set on KB tumors (setting [4]), the “CR (%)” value was 0%, the “Cures (%)” value is reported as 0%, the “PR (%)” value is 0% and the “Toxicity Avg. Weight Loss” value is given as greater than 15%. For the same compound, in the data set with KB tumors (setting [4]), the “Toxicity Deaths (%)” value came out at 20%. The “toxicity in relation to anti-tumor effect in mice” value in the data set with KB tumors (mouse, in vivo) was “dose-limiting toxicities in mice at levels that did not produce measurable anti-tumor effect”. The IC50 with cells in culture is roughly 1 nM.

As to `CCCC(=O)OCN(C(=O)[C@@H](NC(=O)[C@H]1CCCCN1C)C(C)CC)[C@H](C[C@@H](OC(C)=O)c1nc(C(=O)N[C@@H](Cc2ccc(O)cc2)C[C@H](C)C(=O)NNC(=O)OCCSSC(C)(C)[C@@H](NC(=O)[C@@H](CC(=O)O)NC(=O)[C@@H](CC(=O)O)NC(=O)[C@@H](CCCNC(=N)N)NC(=O)[C@@H](CC(=O)O)NC(=O)CC[C@@H](NC(=O)c2ccc(NCc3cnc4nc(N)[nH]c(=O)c4n3)cc2)C(=O)O)C(=O)O)cs1)C(C)C` (some centres unmarked) [EC1393], the “Relative Affinity” value at folate receptors (FRs) is recorded as 0.25. Besides, in data set [1], the “In vitro specificity (fold)” value amounted to 300 fold. The results for the IC50 in data set [1] (setting [3]) and in data set [1] (read-out: In vitro IC50) were 600 nM and 2.2 nM, respectively.

As to `N.N.[Cl][Pt][Cl]` [cisplatin, reference compound], in the data set with KB-CR tumors, the “partial responses (PRs)” value was “no PRs”.

As for `CCCC(=O)OCN(C(=O)[C@@H](NC(=O)[C@H]1CCCCN1C)C(C)CC)[C@H](C[C@@H](OC(C)=O)c1nc(C(=O)N[C@@H](Cc2ccc(O)cc2)C[C@H](C)C(=O)NNC(=O)OCCSSC[C@@H](NC(=O)[C@@H](CC(=O)O)NC(=O)[C@@H](CC(=O)O)NC(=O)[C@@H](CCCNC(=N)N)NC(=O)[C@@H](CC(=O)O)NC(=O)CC[C@@H](NC(=O)c2ccc(NCc3cnc4nc(N)[nH]c(=O)c4n3)cc2)C(=O)O)C(=O)O)cs1)C(C)C` (some centres unmarked) [EC1299], the In vivo activity result in the data set with KB tumors was “Complete”. In addition, the “Relative Affinity” value on folate receptors (FRs) was determined as 0.29. Further, the “In vitro specificity (fold)” value in data set [1] amounted to 778 fold. The IC50 in data set [1] (setting [3]) was 700 nM; in data set [1] (read-out: In vitro IC50), 0.9 nM.

With `CCCC(=O)OCN(C(=O)[C@@H](NC(=O)[C@H]1CCCCN1C)C(C)CC)C(C[C@@H](OC(C)=O)c1nc(C(=O)N[C@@H](Cc2ccc(O)cc2)C[C@H](C)C(=O)NNC(=O)OCCSSC[C@@H](NC(=O)[C@@H](CC(=O)O)NC(=O)[C@H](CC(=O)O)NC(=O)[C@H](CCCNC(=N)N)NC(=O)[C@H](CC(=O)O)NC(=O)CC[C@H](NC(=O)c2ccc(NCc3cnc4nc(N)[nH]c(=O)c4n3)cc2)C(=O)O)C(=O)O)cs1)C(C)C` (some centres unmarked) [EC1549], in the data set with KB tumors, the In vivo activity result is “Complete”. In addition, the “Relative Affinity” value at folate receptors (FRs) came to 0.90. Moreover, the “In vitro specificity (fold)” value in data set [1] was determined as 78 fold. In addition, the IC50 in data set [1] (setting [3]) worked out at 350 nM; in data set [1] (read-out: In vitro IC50), 4.5 nM.

With `CCCCOCN(C(=O)[C@@H](NC(=O)[C@H]1CCCCN1C)C(C)CC)[C@H](C[C@@H](OC(C)=O)c1nc(C(=O)N[C@@H](Cc2ccc(O)cc2)C[C@H](C)C(=O)NNC(=O)OCCSSC[C@@H](NC(=O)[C@H](CCC(=O)NC[C@H](O)[C@@H](O)[C@H](O)[C@H](O)CO)NC(=O)[C@@H](CCC(=O)O)NC(=O)[C@H](CCC(=O)NC[C@H](O)[C@@H](O)[C@H](O)[C@H](O)CO)NC(=O)[C@@H](CCC(=O)O)NC(=O)[C@H](CCC(=O)NC[C@H](O)[C@@H](O)[C@H](O)[C@H](O)CO)NC(=O)CC[C@@H](NC(=O)c2ccc(NCc3cnc4nc(N)[nH]c(=O)c4n3)cc2)C(=O)O)C(=O)O)cs1)C(C)C` (some centres unmarked) [EC1663], in the data set on KB tumors (0.5 μmol/kg TIW, 2 wk, compared to PBS control), the whole animal toxicity result is “did not exhibit significant host animal toxicity; also recorded: does not show any evidence of whole animal toxicity”. In addition, the “partial responses (test animals)” value with KB tumors (intravenously 0.5 μmol/kg TIW, 2 wk) is recorded as 4/4.

Usually MTD stands for the highest dose tested that stayed within the study's limit of toxicity. Read a high MTD as better tolerability. In the case of `N=c1[nH]c(N)nc2ncc(CNc3ccc(C(=O)N[C@@H](CCC(=O)NNC(=O)OCCSSC[C@H](NC(=O)[C@H](CCC(=O)NC[C@H](O)[C@@H](O)[C@H](O)[C@H](O)CO)NC(=O)[C@H](CCC(=O)O)NC(=O)[C@H](CCC(=O)NC[C@H](O)[C@@H](O)[C@H](O)[C@H](O)CO)NC(=O)[C@H](CCC(=O)O)NC(=O)[C@H](CCC(=O)NC[C@H](O)[C@@H](O)[C@H](O)[C@H](O)CO)NC(=O)CC[C@H](NC(=O)c4ccc(NCc5cnc6nc(N)[nH]c(=O)c6n5)cc4)C(=O)O)C(=O)O)C(=O)O)cc3)nc12` [EC0531, reference compound], in data set [2], the maximum tolerated dose (MTD) at 2 weeks is 0.33 µmol/kg. The In vivo activity entry with KB tumors is listed as “Complete”. The “In vitro specificity (fold)” value in data set [1] is listed as 237 fold. The IC50 in data set [1] (setting [3]) came out at 355 nM; in data set [1] (read-out: In vitro IC50), 1.5 nM.
